These results are taken from patent US4668725A, “Stabilizing compounds for organic polymers, and stabilized polymer compounds which contain them” (Enichem Sintesi S.p.A., priority 1984, dated 1987).

A short description of data set [1]: Phenoxy radical formation and stability by ESR after reaction of stabilising compound with benzoyl peroxide in toluene. To be noted: 2% by weight each of compound and benzoyl peroxide in toluene; 70° C. for 24 hours, then at rest to ambient temperature. An excerpt: In the case of stabilising compounds of phenolic nature, phenolic radicals characterised by long life have to form within the polymer in order for the antioxidant activity of the stabilising compound to take effect, and therefore the formation and stability of radicals of this type, originating from the reaction between the stabilising compounds of the present invention and benzoyl peroxide in toluene, are taken as parameters for evaluating the stabilising action of the stabilising compounds concerned.
In particular, in this test, toluene solutions containing 4% by weight of the stabilising compound are prepared simultaneously with solutions containing the same weight percentage of benzoyl peroxide. A small quantity of the stabilising compound solution is then mixed with an equal quantity of the benzoyl peroxide solution.
After mixing, a solution containing 2% by weight of each component is obtained. 1 ml of the resultant solution is then transferred to an ESR (electronic spin resonance) sample tube where it is degassed and sealed under vacuum. The system obtained in this manner is heated to 70° C. for 24 hours. The radical stability is checked by ESR spectra both during the 24 hour heating period and during the subsequent time, in which the system is left at rest to cool to ambient temperature.

Data set [2] can be described thus: Accelerated oven ageing of polypropylene film: growth of carbonyl index (IR band at 1720 cm^-1). Particulars: air circulation oven at 140° C.; 0.1% of the weight of the polymer; 100 μm film; extrapolated to zero carbonyl index; absent stabiliser: 2. On the procedure:
(§1) Accelerated thermal ageing tests are also carried out on polypropylene stabilised by the stabilising compounds of the present invention, and in particular the following tests are carried out:
measurements of the growth of the carbonyl index on polypropylene film containing the stabilising compound and subjected to thermal treatment; and
In the first case, the carbonyl index is evaluated from the IR spectrum for the film, by measuring the band intensity at 1720 cm^-1, and is defined by the relationship: [formula] where Io is the initial band intensity, It is the intensity at time t and S is the film thickness in μm.
The polypropylene film containing the stabilising compound is prepared by dissolving the stabilising compound in benzene and mixing the resultant solution with powdered polypropylene containing no other additive.
The stabilising compound is added in a quantity of 0.1% of the weight of the polymer. The benzene is then removed by evaporation under reduced pressure, and the residual powder is pressed into a film of 100 μm thickness.
The pressing is carried out at a temperature of 160° C. under a pressure of 900 kg/cm^2 for a time of 5 minutes. The film is extracted from the press and is rapidly cooled under running water.
The film prepared in this manner is then subjected to accelerated ageing in an air circulation oven at 140° C.
(§2) The polypropylene used for the tests is the commercial product Moplen® FL 20F of the Montedison Company.
Time of oven treatment (at 140° C.) required for inducing the formation of the IR band at 1720 cm^-1 in polypropylene films without stabilising compound and with stabilising compound.

Data set [3] is described as follows: Melt flow index variation of stabilised polypropylene on repeated extrusion. Further details: unit not given here. Particulars: ASTM-D1238, 90° C., 2.16 kg/cm^2. The method, then: as §1
measurements of the variation in the melt flow index of the polypropylene containing the stabilising compound and subjected to repeated extrusion.
Finally, the melt flow index variation measurements are carried out on polypropylene powder mixed with the stabilising compound by stirring for 30 minutes in a planetary mixer. The repeated extrusions are carried out in an extruder of 19 mm diameter, of length 25 times its diameter, and provided with a 2 mm nozzle and a screw, the compression ratio being 1:4, the speed being 50 r.p.m. The temperature profile along the extruder is 175° C.; 230° C.; 270° C.; 270° C.
After each extrusion, the filament obtained is cut into granules to be subjected to a new extrusion passage.
At the end of each passage, some of the granules are used for measuring the melt flow index in accordance with ASTM-D1238, operating at 90° C. and at a pressure of 2.16 kg/cm^2.
The melt flow index values after 1, 3, 5 and 7 passages through the extruder are shown for polypropylene stabilised by certain stabilisers according to the present invention in Table 3.
as §2
Melt flow index of polypropylene containing the stabilising compound as a function of the number of successive passages through the extruder.

As for `CC(C)(C)c1cc(CCC(=O)Oc2cccc(OC(=O)CCc3cc(C(C)(C)C)c(O)c(C(C)(C)C)c3)c2OC(=O)CCc2cc(C(C)(C)C)c(O)c(C(C)(C)C)c2)cc(C(C)(C)C)c1O` [Example 1, benzene-1,2,3-tri[3-(4'-hydroxy-3',5'-di-tert-butylphenyl)propionate]], in data set [1], the “t 1/2: time required to reduce to one half the ESR signal intensity for the phenoxy radicals” value (shortened to “t 1/2: time required to reduce”) was 20 h and the “t 1/4: time required to reduce to one quarter the ESR signal intensity for the phenoxy radicals” value (“t 1/4: time required to reduce” below) amounted to 100 h. The “Induction time for the formation of the IR band at 1720 cm^-1 (carbonyl band) in polypropylene films” value (“Induction time for the formation” below) in data set [2] was 260 h.
Take `CC(C)(C)c1cc(CCC(=O)Oc2cc(C(=O)O)cc(OC(=O)CCc3cc(C(C)(C)C)c(O)c(C(C)(C)C)c3)c2OC(=O)CCc2cc(C(C)(C)C)c(O)c(C(C)(C)C)c2)cc(C(C)(C)C)c1O` [Example 2, benzene-3,4,5-tri[3-(4'-hydroxy-3',5'-di-tert-butylphenyl)propionate]-1-carboxylic acid]: the “Induction time for the formation” value in data set [2] is 160 h.
Regarding `CC(C)(C)c1cc(CCC(=O)OCCOc2ccc(OCCOC(=O)CCc3cc(C(C)(C)C)c(O)c(C(C)(C)C)c3)cc2)cc(C(C)(C)C)c1O` [Example 3, 1,4-phenylene-bis-(oxyethylidene)-bis-[3-(4'-hydroxy-3',5'-di-tert-butylphenyl)propionate]], the “t 1/2: time required to reduce” value in data set [1] was 24 h. The “t 1/4: time required to reduce” value in data set [1] amounted to 90 h. Also, the “Induction time for the formation” value in data set [2] is 575 h. Further, the “Melt flow index of polypropylene containing the stabilising compound” value was 7.34 in data set [3] (1 extrusion), 9.91 in data set [3] (3 extrusions), 12.59 in data set [3] (5 extrusions) and 14.61 in data set [3] (7 extrusions).
For the compound `CC(C)(C)c1cc(CCC(=O)Nc2ccc(OC(=O)CCc3cc(C(C)(C)C)c(O)c(C(C)(C)C)c3)cc2)cc(C(C)(C)C)c1O` [Example 4, phenylene-1-[3-(4'-hydroxy-3',5'-di-tert-butylphenyl)propionate]-4-[3-(4'-hydroxy-3',5'-di-tert-butylphenyl)propionamide]], in data set [1], the “t 1/2: time required to reduce” value amounted to 15 h. For the same compound, the “t 1/4: time required to reduce” value in data set [1] was determined as 150 h. Further, the “Melt flow index of polypropylene containing the stabilising compound” value is listed as 7.42 in data set [3] (1 extrusion), 10.36 in data set [3] (3 extrusions), 13.09 in data set [3] (5 extrusions) and 15.78 in data set [3] (7 extrusions).
